Values quoted from earlier work in patent US8187640B2, “Low viscosity liquid polymeric delivery system” (Dunn Research & Consulting, LLC, priority 2009, dated 2012).

Test system: Male Sprague Dawley rats
Conditions: given in an aqueous solution

buprenorphine HCL
Duration of efficacy in the rat tail flick test: about 5 hours
